The values that follow come from patent US8299267B2, “(3-hydroxy-4-amino-butan-2-yl) -3- (2-thiazol-2-yl-pyrrolidine-1-carbonyl) benzamide derivatives and related compounds as beta-secretase inhibitors for treating” (CoMentis, Inc., priority 2007, dated 2012).

The structures appear in SMILES notation. pIC50, pKi: −log10 of the molar value. Bounds are passed on as bounds.

As usually defined, the pIC50 is the IC50 on a negative log10 scale, so that one unit is a factor of ten.

The target in assay [1] is memapsin 2 (Homo sapiens, UniProt P56817). The experiment in a line: Inhibition of memapsin 2 beta-secretase activity toward fluorogenic substrate FS-2. Type of assay: biochemical. Particulars: memapsin 2, pH 4, 37° C., 20 minutes pre-incubation, substrate FS-2; read-out: M2Ki. Here is the method: Potency of compounds were determined by measurement of their inhibition of memapsin 2 activity toward a fluorescent substrate. Kinetic inhibition experiments were performed using the procedure as described in Ermolieff, et al. (Biochemistry 39:12450-12456 (2000), the teachings of which are incorporated hereby in their entirety). Briefly, assays were performed at pH 4, 37° C., by pre-incubation of memapsin 2 enzyme with compound for 20 minutes. Activity measurements were initiated by addition of a fluorogenic substrate FS-2 (Bachem Americas, Torrance, Calif.) MCA-SEVNLDAEFK-DNP (SEQ ID NO.: 2). The substrate was derived from 10 amino acids of the human amyloid precursor protein (APP), with the Swedish variant amino acids at the beta-secretase cleavage site. The terminal amino acid was modified from arginine to lysine to facilitate derivatization with a functional group for detection by autofluorescence. The amino acid sequence of the “core” peptide of the substrate is SEVNLDAEFK (SEQ ID NO.: 3). The amino terminus was derivatized with (7-methoxycoumarin-4-yl)acetyl (MCA), and the epsilon amine of the lysine side chain of the terminal residue (K in sequence SEVNLDAEFK (SEQ ID NO.: 4)) was derivatized with 2,4-dinitrophenyl (DNP).

The subject of assay [2] is Aβ production in Chinese hamster ovary cells that over-express human APP695 with the London and Swedish mutations. The experiment in a line: Cellular Aβ IC50 determination (Aβ40 sandwich ELISA). It counts as cell-based. Particulars: Cricetulus griseus; Aβ40 in CHO cells over-expressing human APP695, 24 h incubation. Here is the method:
The potency of compounds against memapsin 2 activity was determined in a cellular assay of Aβ production. […] Chinese hamster ovary cells that over-express human APP695 with the London and Swedish mutations were seeded in multi-well plates at 10% confluency. Compounds are dissolved in DMSO to concentrations near 1 mM, and diluted into culture media to a final concentration near 4 μM (final 0.4% DMSO). Compounds were diluted serially and applied to cells in multi-well plates 48 h after seeding. Incubation was continued in 5% CO2 at 37° C. for 24 h. Aliquots were removed and assayed for Aβ40 content using a sandwich ELISA (BioSource International). Amount of Aβ40 over the range of concentration of compounds, relative to control incubations, were fit to a 4-parameter IC50 model.
For orientation: An ELISA detects its analyte on a solid surface through an enzyme-linked reagent.

Sequence of memapsin 2 (P56817 46-501): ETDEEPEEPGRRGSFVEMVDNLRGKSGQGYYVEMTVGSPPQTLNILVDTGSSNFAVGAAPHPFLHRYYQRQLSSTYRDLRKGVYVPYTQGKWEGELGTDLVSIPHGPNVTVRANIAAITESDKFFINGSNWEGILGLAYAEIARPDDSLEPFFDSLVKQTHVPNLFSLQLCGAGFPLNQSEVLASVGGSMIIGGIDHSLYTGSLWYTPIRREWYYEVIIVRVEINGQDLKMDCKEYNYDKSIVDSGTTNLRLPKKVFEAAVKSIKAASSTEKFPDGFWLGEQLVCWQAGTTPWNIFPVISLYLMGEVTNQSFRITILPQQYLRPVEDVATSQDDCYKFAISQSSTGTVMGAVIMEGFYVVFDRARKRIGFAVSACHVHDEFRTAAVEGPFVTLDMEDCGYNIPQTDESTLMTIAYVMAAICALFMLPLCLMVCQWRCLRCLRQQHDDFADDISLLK

`Cc1coc([C@H]2CCCN2C(=O)c2cccc(C(=O)N[C@@H](Cc3ccccc3)[C@H](O)CNCc3cncc(C(F)(F)F)c3)c2)n1` [Compound 103, N-((2S,3R)-3-hydroxy-1-phenyl-4-((5-(trifluoromethyl)pyridin-3-yl)methylamino)butan-2-yl)-3-((R)-2-(4-methyloxazol-2-yl)pyrrolidine-1-carbonyl)benzamide]: the pKi in assay [1] was above 7.00. In assay [2], the pIC50 was above 6.52.

Regarding `Cc1coc([C@H]2CCCN2C(=O)c2cc(C(=O)N[C@@H](Cc3ccccc3)[C@H](O)CNCc3cccc(C(F)(F)F)c3)cc(-c3ncco3)c2)n1` [Compound 87, N-((2S,3R)-3-hydroxy-1-phenyl-4-(3-(trifluoromethyl)benzylamino)butan-2-yl)-3-((R)-2-(4-methyloxazol-2-yl)pyrrolidine-1-carbonyl)-5-(oxazol-2-yl)benzamide], the pKi in assay [1] is above 7.00. Also, in assay [2], the pIC50 is above 6.52.

`Cc1csc([C@H]2CCCN2C(=O)c2cc(C(=O)N[C@@H](Cc3ccccc3)[C@H](O)CNCc3cncc(C(C)C)c3)cc(-c3ncco3)c2)n1` [Compound 25, N-((2S,3R)-3-hydroxy-4-((5-isopropylpyridin-3-yl)methylamino)-1-phenylbutan-2-yl)-3-((R)-2-(4-methylthiazol-2-yl)pyrrolidine-1-carbonyl)-5-(oxazol-2-yl)benzamide]: the pKi in assay [1] is above 7.00. The compound also showed a pIC50 in assay [2] above 6.52.

Consider `Cc1csc([C@H]2CCCN2C(=O)c2cncc(C(=O)N[C@@H](Cc3ccccc3)[C@H](O)CNCc3cncc(C(C)C)c3)c2)n1` [Compound 27, N-((2S,3R)-3-hydroxy-4-((5-isopropylpyridin-3-yl)methylamino)-1-phenylbutan-2-yl)-5-((R)-2-(4-methylthiazol-2-yl)pyrrolidine-1-carbonyl)nicotinamide], for which the pKi in assay [1] is above 7.00. In assay [2], the pIC50 was above 6.52.

As for `COc1cc(C(=O)N[C@@H](Cc2ccccc2)[C@H](O)CNCc2cncc(C(C)C)c2)cc(C(=O)N2CCC[C@@H]2c2nc(C)cs2)c1` [Compound 83, N-((2S,3R)-3-hydroxy-4-((5-isopropylpyridin-3-yl)methylamino)-1-phenylbutan-2-yl)-3-methoxy-5-((R)-2-(4-methylthiazol-2-yl)pyrrolidine-1-carbonyl)benzamide], in assay [1], the pKi is above 7.00. In assay [2], this compound gave a pIC50 above 6.52.

With `Cc1cc(C(=O)N[C@@H](Cc2ccccc2)[C@H](O)CNCc2cccc(C(C)(F)F)c2)cc(C(=O)N2CCC[C@@H]2c2nc(C)co2)c1` [Compound 104, N-((2S,3R)-4-(3-(1,1-difluoroethyl)benzylamino)-3-hydroxy-1-phenylbutan-2-yl)-3-methyl-5-((R)-2-(4-methyloxazol-2-yl)pyrrolidine-1-carbonyl)benzamide], in assay [1], the pKi was above 7.00. In addition, the pIC50 in assay [2] is above 6.52.

Turning to `Cc1csc([C@H]2CCCN2C(=O)c2cncc(C(=O)N[C@@H](Cc3ccccc3)[C@H](O)CNCc3cccc(C(F)(F)F)c3)c2)n1` [Compound 31, N-((2S,3R)-3-hydroxy-1-phenyl-4-(3-(trifluoromethyl)benzylamino)butan-2-yl)-5-((R)-2-(4-methylthiazol-2-yl)pyrrolidine-1-carbonyl)nicotinamide], the pKi in assay [1] is above 7.00. Further, the pIC50 in assay [2] is above 6.52.

For `Cc1csc([C@H]2CCCN2C(=O)c2cccc(C(=O)N[C@@H](Cc3ccccc3)[C@H](O)CN[C@H](C)c3cncc(C(C)C)c3)c2)n1` [Compound 46, N-((2S,3R)-3-hydroxy-4-((R)-1-(5-isopropylpyridin-3-yl)ethylamino)-1-phenylbutan-2-yl)-3-((R)-2-(4-methylthiazol-2-yl)pyrrolidine-1-carbonyl)benzamide], the pKi in assay [1] is above 7.00. Besides, in assay [2], the pIC50 is above 6.52.

For the compound `COc1cccc(CNC[C@@H](O)[C@H](Cc2ccccc2)NC(=O)c2cccc(C(=O)N3CSC[C@@H]3c3nc(C)cs3)c2)c1` [Compound 8, N-((2S,3R)-3-hydroxy-4-(3-methoxybenzylamino)-1-phenylbutan-2-yl)-3-((R)-4-(4-methylthiazol-2-yl)thiazolidine-3-carbonyl)benzamide], the pKi in assay [1] was above 7.00. In assay [2], this compound showed a pIC50 above 6.52.

With `COc1cc(C(=O)N[C@@H](Cc2ccccc2)[C@H](O)CNCc2cncc(C(C)C)c2)cc(C(=O)N2CCC[C@@H]2c2nc(C)co2)c1` [Compound 89, N-((2S,3R)-3-hydroxy-4-((5-isopropylpyridin-3-yl)methylamino)-1-phenylbutan-2-yl)-3-methoxy-5-((R)-2-(4-methyloxazol-2-yl)pyrrolidine-1-carbonyl)benzamide], in assay [1], the pKi was above 7.00. Besides, the pIC50 in assay [2] was above 6.52.

With `Cc1csc([C@H]2CCCN2C(=O)c2cc(C(=O)N[C@@H](Cc3ccccc3)[C@H](O)CNCc3cccc(C(F)(F)F)c3)cc(-c3cnccn3)c2)n1` [Compound 49, N-((2S,3R)-3-hydroxy-1-phenyl-4-(3-(trifluoromethyl)benzylamino)butan-2-yl)-3-((R)-2-(4-methylthiazol-2-yl)pyrrolidine-1-carbonyl)-5-(pyrazin-2-yl)benzamide], in assay [1], the pKi was above 7.00. For the same compound, the pIC50 in assay [2] was above 6.52.

Regarding `Cc1coc([C@H]2CCCN2C(=O)c2cc(CF)cc(C(=O)N[C@@H](Cc3ccccc3)[C@H](O)CNCc3cncc(C(C)(C)F)c3)c2)n1` [Compound 78, 3-(fluoromethyl)-N-((2S,3R)-4-((5-(2-fluoropropan-2-yl)pyridin-3-yl)methylamino)-3-hydroxy-1-phenylbutan-2-yl)-5-((R)-2-(4-methyloxazol-2-yl)pyrrolidine-1-carbonyl)benzamide], the pKi in assay [1] is above 7.00. This compound showed a pIC50 in assay [2] above 6.52.

`Cc1csc([C@H]2CCCN2C(=O)c2cc(C(=O)N[C@@H](Cc3ccccc3)[C@H](O)CNCc3cccc(C(F)(F)F)c3)cc(C(F)F)c2)n1` [Compound 57, 3-(difluoromethyl)-N-((2S,3R)-3-hydroxy-1-phenyl-4-(3-(trifluoromethyl)benzylamino)butan-2-yl)-5-((R)-2-(4-methylthiazol-2-yl)pyrrolidine-1-carbonyl)benzamide]: the pKi in assay [1] is above 7.00. The pIC50 in assay [2] is above 6.52.

For the compound `Cc1csc([C@H]2CCCN2C(=O)c2cc(C(=O)N[C@@H](Cc3ccccc3)[C@H](O)CNCc3cccc(C(F)(F)F)c3)cc(-c3cccc(Cl)c3)n2)n1` [Compound 91, 2-(3-chlorophenyl)-N-((2S,3R)-3-hydroxy-1-phenyl-4-(3-(trifluoromethyl)benzylamino)butan-2-yl)-6-((R)-2-(4-methylthiazol-2-yl)pyrrolidine-1-carbonyl)isonicotinamide], the pKi in assay [1] was above 7.00. This compound also showed a pIC50 in assay [2] of 6.30 to 6.52.

Consider `Cc1cc(C(=O)N[C@@H](Cc2ccccc2)[C@H](O)CNCc2cccc(C(F)(F)F)c2)cc(C(=O)N2CCC[C@@H]2c2nc(C)co2)c1` [Compound 55, N-((2S,3R)-3-hydroxy-1-phenyl-4-(3-(trifluoromethyl)benzylamino)butan-2-yl)-3-methyl-5-((R)-2-(4-methyloxazol-2-yl)pyrrolidine-1-carbonyl)benzamide], for which the pKi in assay [1] was above 7.00. This compound gave a negative-log IC50 (pIC50) in assay [2] above 6.52.
